In patent US20110059043A1, “CHEMICAL COMPOUNDS” (priority 2009, published 2011):

Columns and labels:
[1] = system: HCV replicon cells Huh 9B; assay: HCV replicon assay (luciferase); format: cell-based; details: Hepatitis C virus, reduction of replicon level by 50% vs untreated cell control, 72 h
[2] = molecular target: T1, Recombinant HCV polymerase (BK strain) (Hepatitis C virus genotype 1b, UniProt P26663); assay: HCV polymerase enzyme assay (radiometric [33P]-UTP incorporation); format: biochemical, HCV 1b
T1 construct: Recombinant HCV polymerase (BK strain) was expressed and purified from E. coli with a 21 amino acid C-terminal deletion; His6; made in house; host or cells: E. coli
T1 sequence (P26663 2420-2989): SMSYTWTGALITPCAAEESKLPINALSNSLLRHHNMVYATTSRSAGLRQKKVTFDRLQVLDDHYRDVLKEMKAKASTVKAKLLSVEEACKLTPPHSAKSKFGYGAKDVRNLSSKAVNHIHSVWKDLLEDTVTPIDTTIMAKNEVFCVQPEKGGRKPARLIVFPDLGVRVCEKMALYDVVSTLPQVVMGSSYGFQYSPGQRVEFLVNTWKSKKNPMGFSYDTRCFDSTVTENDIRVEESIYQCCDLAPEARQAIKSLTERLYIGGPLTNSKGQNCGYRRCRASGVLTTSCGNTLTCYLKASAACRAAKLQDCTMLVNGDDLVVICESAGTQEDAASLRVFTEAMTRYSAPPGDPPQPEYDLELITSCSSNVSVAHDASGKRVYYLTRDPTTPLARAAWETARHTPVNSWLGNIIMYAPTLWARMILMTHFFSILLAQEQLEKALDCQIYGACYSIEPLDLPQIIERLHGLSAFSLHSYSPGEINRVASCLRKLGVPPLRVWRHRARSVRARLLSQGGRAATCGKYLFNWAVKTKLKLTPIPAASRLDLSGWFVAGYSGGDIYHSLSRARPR
Summary of the method: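 His6-tagged BK-strain NS5B lacking 21 C-terminal residues, expressed in E. coli, at 100 nM in Tris pH 7.5 with 5 mM MgCl2 and 3% DMSO. Substrates: 125 nM biotin-U13:0.63 μg/ml PolyA, 200 nM UTP plus [33P]-UTP; 100 min at 25° C. Incorporation read by streptavidin capture; IC50 from 8-point curve.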

[3] = system: HCV replicon cells Huh 9B; format: cell-based; details: concentration reducing total cell area by 50% relative to DMSO controls; 72 h
Summary of the method: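 Huh 9B replicon cells (luciferase-ubiquitin-neomycin fusion, EMCV-IRES-driven HCV polyprotein with adaptive mutations) were seeded from a 100,000 cells/ml suspension in G418-free medium, grown 24 h, then exposed to compound (dilutions at 1% DMSO) for 72 h at 37 °C. For toxicity, methylene blue staining was read at 620 nm and TD50 derived relative to DMSO controls.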

| Compound | IC50 [1] | IC50 [2] | Replicon Assay Value TD50 [3] |
| --- | --- | --- | --- |
| CCOCCOc1ccc(Cl)cc1C(=O)NC1N=C(c2c(Cl)cc(Cl)cc2Cl)c2ccccc2NC1=O (stereo not drawn) [Example 3, 5-Chloro-2-(2-ethoxyethoxy)-N-(2-oxo-5-(2,4,6-trichlorophenyl)-2,3-dihydro-1H-benzo[e][1,4]diazepin-3-yl)benzamide] | 82.9 nM | 111 nM | 16.177 µM |
| COCCCOc1ncc(F)cc1C(=O)NC1N=C(c2c(Cl)cc(Cl)cc2Cl)c2ccccc2NC1=O (stereo not drawn) [Example 38, 5-Fluoro-2-(3-methoxypropoxy)-N-(2-oxo-5-(2,4,6-trichlorophenyl)-2,3-dihydro-1H-benzo[e][1,4]diazepin-3-yl)nicotinamide] | 15.7 nM | 79 nM | 22.269 µM |
| CC(=O)NCCOc1ccc(Cl)cc1C(=O)NC1N=C(c2c(Cl)cc(Cl)cc2Cl)c2ccccc2NC1=O (stereo not drawn) [Example 21, 2-(2-Acetamidoethoxy)-5-chloro-N-(2-oxo-5-(2,4,6-trichlorophenyl)-2,3-dihydro-1H-benzo[e][1,4]diazepin-3-yl)benzamide] | 824 nM | 98.7 nM | 13.188 µM |
| COCCOc1ccc(F)cc1C(=O)N[C@H]1N=C(c2c(Cl)cc(Cl)cc2Cl)c2ccccc2NC1=O [Example 61, (S)-5-Fluoro-2-(2-methoxyethoxy)-N-(2-oxo-5-(2,4,6-trichlorophenyl)-2,3-dihydro-1H-benzo[e][1,4]diazepin-3-yl)benzamide] | 16.7 nM | 44.4 nM | 17.347 µM |
| COCCOc1ncc(F)cc1C(=O)N[C@H]1N=C(c2c(Cl)cc(Cl)cc2Cl)c2ccccc2NC1=O [Example 63, (S)-5-Fluoro-2-(2-methoxyethoxy)-N-(2-oxo-5-(2,4,6-trichlorophenyl)-2,3-dihydro-1H-benzo[e][1,4]diazepin-3-yl)nicotinamide] | 9.7 nM | 50.5 nM | 17.386 µM |
| COCCOc1ccc(C)cc1C(=O)NC1N=C(c2c(Cl)cc(Cl)cc2Cl)c2ccccc2NC1=O (stereo not drawn) [Example 17, 2-(2-Methoxyethoxy)-5-methyl-N-(2-oxo-5-(2,4,6-trichlorophenyl)-2,3-dihydro-1H-benzo[e][1,4]diazepin-3-yl)benzamide] | 78.8 nM | 235 nM | >25 µM |
| CCCCCOCCOc1ccc(Cl)cc1C(=O)NC1N=C(c2c(Cl)cc(Cl)cc2Cl)c2ccccc2NC1=O (stereo not drawn) [Example 7, 5-Chloro-N-(2-oxo-5-(2,4,6-trichlorophenyl)-2,3-dihydro-1H-benzo[e][1,4]diazepin-3-yl)-2-(2-(pentyloxy)ethoxy)benzamide] | 1450 nM | 662 nM | 11.806 µM |
| COCCOc1ccc(Br)cc1C(=O)NC1N=C(c2c(Cl)cc(Cl)cc2Cl)c2ccccc2NC1=O (stereo not drawn) [Example 20, 5-Bromo-2-(2-methoxyethoxy)-N-(2-oxo-5-(2,4,6-trichlorophenyl)-2,3-dihydro-1H-benzo[e][1,4]diazepin-3-yl)benzamide] | 195 nM | 535 nM | >25 µM |
